Reference: patent US10400008B2, “Modulators of the SRC-kinase activity for preventing or treating metastatic cancer” (Cancer Research Technology Limited, priority 2013, dated 2019)
Where “and” joins values, the source holds several entries; their conditions need not be identical. Identical values can stand only once. Entries after “also recorded” stand apart in the source; their conditions may differ.

How the values were obtained:
[1] = system: PC-3 cells; assay: PC-3 cell proliferation, WST-1; type: cell-based, human; details: 100 pM-1 μM, WST-1 at days 3, 5, 7, 9; statistically significant with all doses above 100 pM
Experimental: We have studied the effects of Val201 on cell proliferation of the ER positive human prostate cancer cell line PC-3 in vitro and growth and metastatis in vivo in an orthotopic xenograft model. The proliferation effects were studied for 100 pM, 1 nM, 10 nM, 100 nM and 1 μM concentrations of VAL201 by measuring WST-1 values at days 3, 5, 7 and 9. Groups with vehicle and 1 μM gemcitabine as reference compound were included in the study. The xenograft study was performed with 6-7 week-old immunodeficient BALB/c nude mice that were allocated to 6 groups (with n=15/group) according to the body weight, one group receiving vehicle and the others VAL201 at doses 0.04, 0.4, 4, 10 and 20 mg/kg. PC-3 cells in Matrigel were inoculated orthotopically into the prostate. Subcutaneous dosing was started at day 1 and continued daily for 28 days. The mice were weighed twice a week. Orthotopic tumors were measured by calliper and the prostate and the regional lymph nodes were harvested at sacrifice. Metastases in lymph nodes were determined from HE stained paraffin sections.

[2] = system: PC-3 cells; assay: Orthotopic PC-3 prostate cancer model: tumor volume and lymph node metastases; type: in vivo, BALB/c nude mice; details: for incidence of lymph node metastasis: vs vehicle; for Total tumor volumes during the study: animals 2.x (0.04 mg/kg by heads of Tables 2-3)
Experimental: Six week-old immunodeficient BALB/c nude mice were allocated to six 15-mice groups according to the body weight. PC-3 cells were inoculated orthotopically into prostates of the mice. Dosing (s.c.) was started at study day 1 and continued daily for 28 days.
Mice were weighed twice a week, and after 4 weeks, mice were sacrificed. Gross necropsy was performed to all animals at the end of the study, and all macroscopic signs were recorded. Volume of the prostate tumors was measured and prostate as well as prostate draining lymph nodes were collected for histology. The number of metastasis in lymph nodes was determined under microscope.
The 0.01 mg/ml, 0.1 mg/ml, 1 mg/ml, 2.5 mg/ml and 5 mg/ml dosing suspensions were prepared from test peptide VAL001 by dilution to PBS. […] New dosing suspensions were prepared every week.
An animal model was used that can be effectively used for testing the effects of cancer drug candidates on the primary tumor growth in prostate microenvironment. In this model, human prostate cancer cells are inoculated into prostate of 4-5 week old male BALB/c nude mice. This mouse strain is immunodeficient, allowing rapid growth and spread of the human cancer cells. Within four weeks after the inoculation, animal develop large tumor to prostate and metastases to regional iliac and sacral lymph nodes. The animals are sacrificed at 4 weeks after inoculation, and their prostate with tumor and regional lymph nodes are collected for further histomorphometric analysis.
Male BALB/c nude mice (BALB/c OlaHsd-Foxn1^nu, obtained from Harlan, The Netherlands) were used for this study. The age of the animals was 6-7 weeks, and their body weights were approximately 16-23 g at the beginning of the study. The mice were specific pathogen free (SPF) and isolator-reared animals. Correct age and good clinical health were qualifications for the study. The acclimatization period for the mice was 4 days. Allocation to groups was performed by randomization procedure based on body weight. The animals were marked with ear marks. For orthotopic inoculations the mice were anesthetized with inhalation of isoflurane. Analgesia was provided before and 2 days after the orthotopic inoculation with buprenorphine: 0.1 mg/kg, s.c.
At the end of the study, the animals were weighed and sacrificed with cervical dislocation under anesthesia. Necropsy was carried out in all animals. Macroscopic findings were recorded on the follow-up forms. Tissue samples from prostate with tumor and lymph nodes were collected for histology and number of metastases in lymph nodes was determined.
Statistical analysis was performed with R: A Language and Environment for Statistical Computing (version 2.14.2; R Development Core Team, Vienna, Austria). The mean and standard deviation of the body weights and the tumor volumes at sacrifice were determined. Normality of the distributions and homogeneity of variance were checked before further analyses. In case of violating these assumptions, either log transformation or other appropriate transformation (e.g. square root, reciprocal) was applied. If the assumptions were fulfilled as such or after transformation, one-way ANOVA was used to study if the values obtained between the groups were statistically different (with p<0.05). If differences were found, Tukey's HSD test was used for pairwise comparison between all groups. If the assumptions were not fulfilled even after the transformations described above, the non-parametric Kruskal-Wallis test followed by Mann-Whitney U-test were used.
The statistical analysis of incidence of lymph node metastases was done using Fisher's exact test as one-sided test in which the null hypothesis reflected the assumption that the treatment […].

Ac-PPPHPHARIK-NH2 [VAL001]
PC-3 cell proliferation [1]: dose-dependent inhibition | inhibition of the development of lymph node metastases ([2]; 0.04 mg/kg s.c. daily 28 days): 50% | incidence of lymph node metastasis ([2]; 0.04 mg/kg s.c. daily 28 days, Fisher's exact test p=0.01643): statistically significantly less; also recorded: inhibited statistically significantly | inhibition of the development of lymph node metastases ([2]; 0.4 mg/kg s.c. daily 28 days): 50% | incidence of lymph node metastasis ([2]; 0.4 mg/kg s.c. daily 28 days, Fisher's exact test p=0.03913): statistically significantly less; also recorded: inhibited statistically significantly | decrease in tumor volume ([2]; 0.4 mg/kg s.c. daily 28 days, not statistically significant): 35% | statistically significant effects on orthotopic tumor growth ([2]; 0.04-20 mg/kg s.c. daily 28 days): not observed | tumor volumes between the treatment groups ([2]; 0.04-20 mg/kg s.c. daily 28 days, at sacrifice): no statistically significant differences | Total tumor volumes during the study ([2]; day 5, single animals): 22.3 and 11.5 and 21.5 and 16.9 and 26.7 and 29.3 (2×) and 27.8 | Total tumor volumes during the study ([2]; day 7, single animals, in mm³ (unit assumed)): 21.1 and 7.8 and 17.8 and 22.0 and 16.9 and 18.3 and 31.2 and 29.6 | Total tumor volumes during the study ([2]; day 9, single animals, in mm³ (unit assumed)): 28.2 and 18.2 and 32.4 and 21.3 and 29.6 and 57.8 and 76.4 and 34.4 | Total tumor volumes during the study ([2]; day 12, single animals, in mm³ (unit assumed)): 51.3 and 20.1 and 39.6 and 56.1 and 24.6 and 57.0 and 116.3 and 70.3 | Total tumor volumes during the study ([2]; day 14, single animals, in mm³ (unit assumed)): 71.8 and 55.8 and 72.5 and 65.8 and 54.7 and 114.0 and 176.1 and 106.7 | Total tumor volumes during the study ([2]; day 16, single animals, in mm³ (unit assumed)): 87.7 and 70.9 and 140.3 and 85.4 and 62.6 and 167.3 and 183.2 and 112.1 | Total tumor volumes during the study ([2]; day 19, single animals, in mm³ (unit assumed)): 202.0 and 163.3 and 186.2 and 140.9 and 104.4 and 181.7 and 332.0 and 227.3 | Total tumor volumes during the study ([2]; day 21, single animals, in mm³ (unit assumed)): 182.3 and 152.1 and 196.2 and 139.5 and 120.6 and 278.5 and 365.1 and 240.1 | Total tumor volumes during the study ([2]; day 23, single animals, in mm³ (unit assumed)): 158.4 and 95.0 and 289.5 and 181.8 and 127.8 and 278.8 and 386.3 and 323.8 and 345.6 | Total tumor volumes during the study ([2]; day 26, single animals, in mm³ (unit assumed)): 277.2 and 233.9 and 254.0 and 243.7 and 239.4 and 381.2 and 618.5 and 328.7 and 518.9 | Total tumor volumes during the study ([2]; day 29, single animals, in mm³ (unit assumed)): 382.9 and 204.8 and 258.0 and 216.8 and 245.1 and 418.0 and 750.0 and 430.6 and 288.0
